Data from patent US11045457B2, “Piperidinyl-3-(aryloxy)propanamides and propanoates” (priority 2018, dated 2021).

How the values were obtained:
SSTR4 [1] = target: T1, SSTR4 (Homo sapiens (Human), UniProt P31391); assay: Inhibition of forskolin stimulated cAMP in CHO-K1 cells overexpressing SSTR4; assay type: cell-based; details: for EC50: read-out: SSTR4 Activity pEC50 (converted)
How it was run: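 Read-out is a HTRF LANCE Ultra cAMP competition using Eu-labelled streptavidin and biotin-cAMP, incubated 60 min at room temperature. It followed a 30 min room-temperature exposure of Kreb's Ringer-washed cells to compound plus forskolin. Potency is expressed as pEC50.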

SSTR4 [2] = target: T1, SSTR4; assay: SSTR4 I-125 somatostatin competition binding assay (membranes from CHO-K1 cells overexpressing SSTR4); details: competition with I-125 labeled somatostatin; for IC50: read-out: SSTR4 Binding pIC50 (converted)
SSTR1 = SSTR1 (Homo sapiens (Human), UniProt P30872); assay: SSTR1 I-125 somatostatin competition binding assay for selectivity versus SSTR4 (membranes from CHO-K1 cells overexpressing SSTR1); details: for SSTR1 Binding pIC50: competition with I-125 labeled somatostatin, CHO-K1 SSTR1 membranes;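 for all read-outs here: Filter-based radioligand binding, bound label counted by scintillation after 60 min incubation at room temperature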
Sequence of SSTR1 (P30872 whole entry): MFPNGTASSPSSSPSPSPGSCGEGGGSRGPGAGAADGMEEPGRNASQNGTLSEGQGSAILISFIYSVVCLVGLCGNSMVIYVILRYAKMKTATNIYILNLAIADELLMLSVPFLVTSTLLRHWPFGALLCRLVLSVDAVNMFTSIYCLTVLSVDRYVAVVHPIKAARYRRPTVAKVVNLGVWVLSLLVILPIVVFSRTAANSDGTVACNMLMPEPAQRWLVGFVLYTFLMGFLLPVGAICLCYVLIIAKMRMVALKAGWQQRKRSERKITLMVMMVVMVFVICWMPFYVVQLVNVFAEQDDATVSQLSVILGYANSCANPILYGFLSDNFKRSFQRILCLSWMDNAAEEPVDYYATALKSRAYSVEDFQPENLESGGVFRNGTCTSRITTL

T1 sequence (P31391 whole entry): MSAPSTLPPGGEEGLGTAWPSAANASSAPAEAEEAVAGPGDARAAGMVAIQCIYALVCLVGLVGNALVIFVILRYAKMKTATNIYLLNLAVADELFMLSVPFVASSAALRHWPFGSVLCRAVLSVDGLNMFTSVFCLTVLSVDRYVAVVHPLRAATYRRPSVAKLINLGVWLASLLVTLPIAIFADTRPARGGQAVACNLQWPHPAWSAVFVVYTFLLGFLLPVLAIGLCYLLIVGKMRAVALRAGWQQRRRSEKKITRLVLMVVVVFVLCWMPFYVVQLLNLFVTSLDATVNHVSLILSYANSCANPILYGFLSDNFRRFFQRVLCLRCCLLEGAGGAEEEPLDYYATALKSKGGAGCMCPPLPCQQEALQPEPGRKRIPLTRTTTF

CN1CCC(NC(=O)C(C)(C)COc2ccccc2C(F)(F)F)CC1 [Example 64, 2,2-dimethyl-N-(1-methylpiperidin-4-yl)-3-(2-(trifluoromethyl)phenoxy)propanamide]
SSTR4 Activity pEC50 (SSTR4 [1]): 7.9
SSTR4 Binding pIC50 (SSTR4 [2]): 7.0
SSTR1 Binding pIC50 (SSTR1): 5.1

C[C@@H]1CN(C)C[C@H]1NC(=O)C(C)(C)COc1ncccc1C1CC1 (racemic) [Example 181, 3-((3-cyclopropylpyridin-2-yl)oxy)-N-(trans-1,4-dimethylpyrrolidin-3-yl)-2,2-dimethylpropanamide]
EC50 (SSTR4 [1]): 15.8 nM
IC50 (SSTR4 [2]): 398 nM
IC50 (SSTR1): 3160 nM

CN1CC[C@@H](NC(=O)C(C)(C)COc2ccccc2Cl)C1 [Example 68, (R)-3-(2-chlorophenoxy)-2,2-dimethyl-N-(1-methylpyrrolidin-3-yl)propanamide]
SSTR4 Activity pEC50 (SSTR4 [1]): 7.5
SSTR4 Binding pIC50 (SSTR4 [2]): 6.8
SSTR1 Binding pIC50 (SSTR1): 4.6

CN1CC[C@H](NC(=O)C(C)(C)COc2ncccc2OC(F)(F)F)[C@@H](F)C1 [Example 124, N-((3S,4S)-3-fluoro-1-methylpiperidin-4-yl)-2,2-dimethyl-3-((3-(trifluoromethoxy)pyridin-2-yl)oxy)propanamide]
SSTR4 Activity pEC50 (SSTR4 [1]): 7.6
SSTR4 Binding pIC50 (SSTR4 [2]): 7.4
SSTR1 Binding pIC50 (SSTR1): 5.1

Cc1cccnc1OCC(C)(C)C(=O)N[C@@H]1CCN(C)C[C@H]1C (relative stereo) [Example 17, trans-N-(1,3-dimethylpiperidin-4-yl)-2,2-dimethyl-3-((3-methylpyridin-2-yl)oxy)propanamide]
SSTR4 Activity pEC50 (SSTR4 [1]): 7.7
SSTR4 Binding pIC50 (SSTR4 [2]): 6.7
SSTR1 Binding pIC50 (SSTR1): 4.7

Cc1ccccc1[C@@H]1CNCC[C@H]1OC(=O)C(C)(C)COc1ncccc1C(F)(F)F (racemic) [Example 168, trans-3-(o-tolyl)piperidin-4-yl 2,2-dimethyl-3-((3-(trifluoromethyl)pyridin-2-yl)oxy)propanoate]
EC50 (SSTR4 [1]): 25.1 nM
IC50 (SSTR4 [2]): 158 nM
IC50 (SSTR1): 15800 nM

CN1CCC(NC(=O)C(C)(C)COc2ccccc2OC(F)(F)F)CC1 [Example 102, 2,2-dimethyl-N-(1-methylpiperidin-4-yl)-3-(2-(trifluoromethoxy)phenoxy)propanamide]
SSTR4 Activity pEC50 (SSTR4 [1]): 8.7
SSTR4 Binding pIC50 (SSTR4 [2]): 7.8
SSTR1 Binding pIC50 (SSTR1): 5.6

CC[C@@H]1CN(C)CC[C@H]1NC(=O)C(C)(C)COc1ncccc1C (racemic) [Example 127, trans-N-(3-ethyl-1-methylpiperidin-4-yl)-2,2-dimethyl-3-((3-methylpyridin-2-yl)oxy)propanamide]
EC50 (SSTR4 [1]): 12.6 nM
IC50 (SSTR4 [2]): 79.4 nM
IC50 (SSTR1): 7940 nM

CC[C@@H]1CN(C)CC[C@H]1NC(=O)C(C)(C)COc1ncc(C)cc1C (racemic) [Example 128, trans-3-((3,5-dimethylpyridin-2-yl)oxy)-N-(3-ethyl-1-methylpiperidin-4-yl)-2,2-dimethylpropanamide]
EC50 (SSTR4 [1]): 15.8 nM
IC50 (SSTR4 [2]): 63.1 nM
IC50 (SSTR1): 3160 nM

Cc1ccccc1[C@@H]1CN(C)CC[C@H]1NC(=O)C(C)(C)COc1ncccc1C(F)(F)F (relative stereo) [Example 161, 2,2-dimethyl-N-(trans-1-methyl-3-(o-tolyl)piperidin-4-yl)-3-((3-(trifluoromethyl)pyridin-2-yl)oxy)propanamide]
SSTR4 Activity pEC50 (SSTR4 [1]): 9.1
SSTR4 Binding pIC50 (SSTR4 [2]): 7.7
SSTR1 Binding pIC50 (SSTR1): 6.5

Cc1cccnc1OCC(C)(C)C(=O)N[C@@H]1CN(C)C[C@H]1C (racemic) [Example 182, N-(trans-1,4-dimethylpyrrolidin-3-yl)-2,2-dimethyl-3-((3-methylpyridin-2-yl)oxy)propanamide]
EC50 (SSTR4 [1]): 31.6 nM
IC50 (SSTR4 [2]): 794 nM
IC50 (SSTR1): 12600 nM

C[C@H]1CNCC[C@@H]1NC(=O)C(F)(F)COc1ncccc1OC(F)(F)F [Example 210, 2,2-difluoro-N-((3S,4S)-3-methylpiperidin-4-yl)-3-((3-(trifluoromethoxy)pyridin-2-yl)oxy)propanamide]
SSTR4 Activity pEC50 (SSTR4 [1]): 9.1
SSTR4 Binding pIC50 (SSTR4 [2]): 7.6
SSTR1 Binding pIC50 (SSTR1): 4.5

CN1CC[C@H](NC(=O)C(C)(C)COc2ccccc2Cl)[C@@H](F)C1 [Example 188, 3-(2-chlorophenoxy)-N-((3S,4S)-3-fluoro-1-methylpiperidin-4-yl)-2,2-dimethylpropanamide]
SSTR4 Activity pEC50 (SSTR4 [1]): 8.2
SSTR4 Binding pIC50 (SSTR4 [2]): 7.6
SSTR1 Binding pIC50 (SSTR1): 5.0

Cc1nn(C)cc1[C@@H]1CN(C)C[C@H]1NC(=O)C(C)(C)COc1ncccc1OC(F)(F)F (relative stereo) [Example 29, trans-N-(4-(1,3-dimethyl-1H-pyrazol-4-yl)-1-methylpyrrolidin-3-yl)-2,2-dimethyl-3-((3-(trifluoromethoxy)pyridin-2-yl)oxy)propanamide]
SSTR4 Activity pEC50 (SSTR4 [1]): 8.4
SSTR4 Binding pIC50 (SSTR4 [2]): 7.4
SSTR1 Binding pIC50 (SSTR1): 6.4

Cc1cccnc1OCC(C)(C)C(=O)N[C@H]1CCN(C)C[C@@H]1C [Example 143, N-((3S,4S)-1,3-dimethylpiperidin-4-yl)-2,2-dimethyl-3-((3-methylpyridin-2-yl)oxy)propanamide]
SSTR4 Activity pEC50 (SSTR4 [1]): 7.9
SSTR4 Binding pIC50 (SSTR4 [2]): 6.9
SSTR1 Binding pIC50 (SSTR1): 4.8
